Assays:
[1] = system: PfArk2; test: γ-P32 ATP utilization kinase assay with MBP as substrate; format: biochemical, Plasmodium falciparum; details: GST-tagged PfArk2 2.5 μg, MBP 2.5 μg, autoradiogram (FIG. 17B)
Method: GST-tagged PfArk2 was purified using affinity chromatography (FIG. 17A). Compounds were added to a standard kinase assay at indicated concentrations against PfArk-2 (2.5 μg) in a γ-P^32 ATP utilization assay with MBP (2.5 μg) as substrate (FIG. 17B). Upper panels show Coomassie Blue-stained gel and the lower panel is the corresponding autoradiogram.

[2] = system: 3T3 Mouse fibroblast cells; test: MTS cytotoxicity assay; format: cell-based; details: for Selectivity Index: 3T3 EC50 versus Dd2 IC50; for EC50 / EC90: cytotoxicity, 3T3 mouse fibroblast cells
Method: The intraerythrocytic development of the malaria parasite diverges from the paradigm of eukaryotic cell cycle. Novelty of the Plasmodium cell cycle offers opportunities for development of therapeutics directed against essential components. […] Essential Plasmodium Aurora-related kinases (Arks) 1, 2, and 3 are homologous to Aurora A and B, Ser/Thr kinases involved in cell division. […] To discover potent and selective small molecule inhibitors of PfArks, screening was conducted of a library of optimized mammalian Aurora kinase inhibitors that have evolved from a general pharmacophore models for Ser/Thr kinases. In addition, we are also repurposing human Aurora kinase inhibitors to discover antimalarial lead compounds. Novel potent inhibitors (EC50<1 μM) were identified in cell-based screening using SYBR Green I fluorescence based assay. Selectivity of the hits against mammalian cells were determined using the MTS ((3-(4,5 dimethylthiazol-2-yl)-5-(3-carboxymethoxyphenyl)-2-(4-sulfophenyl)-2H-tetrazolium, inner salt) cell proliferation assay. Results from our studies to assess structure-activity-relationship, specificity of inhibition, and cellular effects of the compounds will be presented.
(§1) 7 hit compounds and 17 mammalian Aurora A and B inhibitors in clinical trial were screened by SYBR Green I-based fluorescence assay to determine IC50 values in chloroquine-resistant P. falciparum Dd2 and the cytotoxicity was evaluated in 3T3 Mouse fibroblast cells using MTS cytotoxicity assay. The results of the top 2 ASINEX library compounds and 3 commercially available mammalian Aurora A and B inhibitors are shown in Table 1 below with noted structures provided in FIG. 16.

[3] = system: chloroquine-resistant P. falciparum Dd2; test: SYBR Green I-based fluorescence assay, intraerythrocytic growth inhibition; format: cell-based, Plasmodium falciparum; details: for IC50 / IC90: P. falciparum Dd2, 72 h
Method: Ten millimolar compound stocks in DMSO were diluted by ½, ⅕, and/or 1/10 fold dilutions in ultrapure water or RPMI 1640. Varying concentrations of compound were added to culture at a 1% parasitemia and 2% hematocrit in 96-well black plates. Assay conditions maintained maximum DMSO concentrations less than 0.125% per dilution. Positive (baseline 0% growth) controls consisted of Chloroquine at 1 μM final concentration. Following 72 h incubation at 37° C. in 5% CO2, dilution plates were frozen at −80° C. for a minimum of 30 minutes. Dilution plates were allowed to thaw followed by lysis treatment and SYBR Green I incorporation. DNA quantification was determined using a fluorescence reading on a Synergy H4 multimode plate reader set at 485 nm excitation and 530 nm emission as previously reported (Roberts, Iyamu et al. 2016). EC50 was calculated from a dose response curve that was generated from a concentration range of 0-10 μM using GraphPad Prism v5.0.
Different dilutions of the compound/fraction in 1 μl of the culture medium were added to 99 μl of P. falciparum culture at a 1% parasitemia and 2% hematocrit in 96-well plates. Maximum DMSO concentration in the culture never exceeded 0.125%. Chloroquine at 1 μM was used as a positive control to determine the baseline value. Following 72 hours incubation at 37° C., the plates were frozen at −80° C. After thawing, 100 μL of lysis buffer (with SYBR Green I dye 1:10,000) was added to each well and plates were incubated at room temperature for 30 minutes prior to reading.
80 compounds were screened for their ability to inhibit the intraerythrocytic growth of chloroquine-resistant P. falciparum Dd2 using a SYBR Green I-based fluorescence assay at 1 μM.
as §1

[4] = P. falciparum Dd2, compound at 1 μM, 72 h

Compound	Inhibition of PfArk2 activity [1]	Selectivity Index [2]	EC50 [2] [nM]	EC90 [2] [nM]	IC50 [3] [nM]	IC90 [3] [nM]	% inhibition (1 μM) [3, 4] [%]	IC50 ([3]; Plasmodium falciparum) [nM]	IC90 ([3]; Plasmodium falciparum) [nM]	inhibition at 1 µM ([3]; Plasmodium falciparum, P. falciparum Dd2, compound at 1 μM, 72 h) [%]
COc1cc2c(Nc3ccc(NC(=O)c4ccccc4)cc3)ncnc2cc1OCCCN1CCOCC1 [DC-0005146, ZM-447439]	not particularly effective in inhibiting PfArk2 activity	3.7	3780	11700	1020	4320	75			
CCn1cc(-c2ccnc3[nH]c(-c4cccc(CN(C)C)c4)cc23)c(-c2ccc(NC(=O)N(C)C)cc2)n1 [DC-0005154, GSK-1070916]	not particularly effective in inhibiting PfArk2 activity	13.5	5970	15900				441	1720	87
BI-847325 [DC-0005156]		2.5	1310	> 26700	530	2000	93			
